Assay results taken from ChEMBL document CHEMBL5291721, “A preclinical secondary pharmacology resource illuminates target-adverse drug reaction associations of marketed drugs” (Nat Commun, 2023).

Key:
[1] = molecular target: T1, Alpha-1A adrenergic receptor (Homo sapiens, UniProt P35348)
T1 sequence (P35348 whole entry): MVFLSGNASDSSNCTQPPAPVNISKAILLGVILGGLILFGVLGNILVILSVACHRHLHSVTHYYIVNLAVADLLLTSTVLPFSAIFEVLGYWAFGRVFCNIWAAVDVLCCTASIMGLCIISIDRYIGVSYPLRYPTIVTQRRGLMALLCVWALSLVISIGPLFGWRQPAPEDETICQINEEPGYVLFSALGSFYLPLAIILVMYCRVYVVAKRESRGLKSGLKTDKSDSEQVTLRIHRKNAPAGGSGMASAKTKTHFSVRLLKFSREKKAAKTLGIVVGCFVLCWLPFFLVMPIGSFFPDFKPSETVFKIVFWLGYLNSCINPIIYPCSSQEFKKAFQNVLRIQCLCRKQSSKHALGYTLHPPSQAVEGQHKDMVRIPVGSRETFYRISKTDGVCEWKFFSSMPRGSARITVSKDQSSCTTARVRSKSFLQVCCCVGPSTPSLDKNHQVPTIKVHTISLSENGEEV

[2] = molecular target: Beta-2 adrenergic receptor (Homo sapiens, UniProt P07550); type: functional, cell-based
Beta-2 adrenergic receptor, sequence (P07550 whole entry): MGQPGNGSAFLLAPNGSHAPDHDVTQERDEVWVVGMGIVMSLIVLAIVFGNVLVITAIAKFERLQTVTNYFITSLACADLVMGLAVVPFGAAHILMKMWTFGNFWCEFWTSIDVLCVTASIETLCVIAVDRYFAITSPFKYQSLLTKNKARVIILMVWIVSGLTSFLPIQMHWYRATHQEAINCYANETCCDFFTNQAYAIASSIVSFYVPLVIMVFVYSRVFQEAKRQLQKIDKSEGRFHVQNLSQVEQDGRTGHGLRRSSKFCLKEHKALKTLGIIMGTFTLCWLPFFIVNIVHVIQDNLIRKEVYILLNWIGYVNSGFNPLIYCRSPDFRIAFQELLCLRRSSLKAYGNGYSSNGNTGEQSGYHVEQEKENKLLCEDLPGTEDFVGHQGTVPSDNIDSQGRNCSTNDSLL

Vasopressin V1a receptor = Vasopressin V1a receptor (Homo sapiens, UniProt P37288)
Vasopressin V1a receptor, sequence (P37288 whole entry): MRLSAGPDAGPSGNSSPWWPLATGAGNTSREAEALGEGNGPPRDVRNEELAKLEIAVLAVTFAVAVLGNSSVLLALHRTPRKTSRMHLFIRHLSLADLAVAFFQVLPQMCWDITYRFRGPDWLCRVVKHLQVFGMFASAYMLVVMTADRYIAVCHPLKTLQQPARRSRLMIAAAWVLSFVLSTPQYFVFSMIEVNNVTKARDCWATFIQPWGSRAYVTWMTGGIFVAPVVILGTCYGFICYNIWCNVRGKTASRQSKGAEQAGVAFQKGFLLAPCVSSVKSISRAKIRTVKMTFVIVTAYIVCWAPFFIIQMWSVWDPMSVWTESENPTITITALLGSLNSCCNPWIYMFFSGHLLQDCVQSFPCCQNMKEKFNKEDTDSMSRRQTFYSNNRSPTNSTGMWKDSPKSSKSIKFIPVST

B2 bradykinin receptor = molecular target: T2, B2 bradykinin receptor (Homo sapiens, UniProt P30411)
T2 sequence (P30411 whole entry): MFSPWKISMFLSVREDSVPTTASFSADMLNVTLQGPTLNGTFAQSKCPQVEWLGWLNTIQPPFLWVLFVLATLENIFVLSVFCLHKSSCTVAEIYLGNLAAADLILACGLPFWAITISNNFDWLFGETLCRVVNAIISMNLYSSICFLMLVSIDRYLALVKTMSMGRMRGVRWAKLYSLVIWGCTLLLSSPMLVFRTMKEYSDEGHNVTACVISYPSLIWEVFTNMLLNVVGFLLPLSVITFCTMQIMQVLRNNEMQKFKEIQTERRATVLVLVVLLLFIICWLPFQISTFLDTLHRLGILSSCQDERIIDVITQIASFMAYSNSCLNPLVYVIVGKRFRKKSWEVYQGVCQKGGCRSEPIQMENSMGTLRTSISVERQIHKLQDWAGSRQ

[3] = molecular target: Voltage-dependent L-type calcium channel subunit alpha-1C (Rattus norvegicus, UniProt P22002); type: functional
Voltage-dependent L-type calcium channel subunit alpha-1C, sequence (P22002 whole entry): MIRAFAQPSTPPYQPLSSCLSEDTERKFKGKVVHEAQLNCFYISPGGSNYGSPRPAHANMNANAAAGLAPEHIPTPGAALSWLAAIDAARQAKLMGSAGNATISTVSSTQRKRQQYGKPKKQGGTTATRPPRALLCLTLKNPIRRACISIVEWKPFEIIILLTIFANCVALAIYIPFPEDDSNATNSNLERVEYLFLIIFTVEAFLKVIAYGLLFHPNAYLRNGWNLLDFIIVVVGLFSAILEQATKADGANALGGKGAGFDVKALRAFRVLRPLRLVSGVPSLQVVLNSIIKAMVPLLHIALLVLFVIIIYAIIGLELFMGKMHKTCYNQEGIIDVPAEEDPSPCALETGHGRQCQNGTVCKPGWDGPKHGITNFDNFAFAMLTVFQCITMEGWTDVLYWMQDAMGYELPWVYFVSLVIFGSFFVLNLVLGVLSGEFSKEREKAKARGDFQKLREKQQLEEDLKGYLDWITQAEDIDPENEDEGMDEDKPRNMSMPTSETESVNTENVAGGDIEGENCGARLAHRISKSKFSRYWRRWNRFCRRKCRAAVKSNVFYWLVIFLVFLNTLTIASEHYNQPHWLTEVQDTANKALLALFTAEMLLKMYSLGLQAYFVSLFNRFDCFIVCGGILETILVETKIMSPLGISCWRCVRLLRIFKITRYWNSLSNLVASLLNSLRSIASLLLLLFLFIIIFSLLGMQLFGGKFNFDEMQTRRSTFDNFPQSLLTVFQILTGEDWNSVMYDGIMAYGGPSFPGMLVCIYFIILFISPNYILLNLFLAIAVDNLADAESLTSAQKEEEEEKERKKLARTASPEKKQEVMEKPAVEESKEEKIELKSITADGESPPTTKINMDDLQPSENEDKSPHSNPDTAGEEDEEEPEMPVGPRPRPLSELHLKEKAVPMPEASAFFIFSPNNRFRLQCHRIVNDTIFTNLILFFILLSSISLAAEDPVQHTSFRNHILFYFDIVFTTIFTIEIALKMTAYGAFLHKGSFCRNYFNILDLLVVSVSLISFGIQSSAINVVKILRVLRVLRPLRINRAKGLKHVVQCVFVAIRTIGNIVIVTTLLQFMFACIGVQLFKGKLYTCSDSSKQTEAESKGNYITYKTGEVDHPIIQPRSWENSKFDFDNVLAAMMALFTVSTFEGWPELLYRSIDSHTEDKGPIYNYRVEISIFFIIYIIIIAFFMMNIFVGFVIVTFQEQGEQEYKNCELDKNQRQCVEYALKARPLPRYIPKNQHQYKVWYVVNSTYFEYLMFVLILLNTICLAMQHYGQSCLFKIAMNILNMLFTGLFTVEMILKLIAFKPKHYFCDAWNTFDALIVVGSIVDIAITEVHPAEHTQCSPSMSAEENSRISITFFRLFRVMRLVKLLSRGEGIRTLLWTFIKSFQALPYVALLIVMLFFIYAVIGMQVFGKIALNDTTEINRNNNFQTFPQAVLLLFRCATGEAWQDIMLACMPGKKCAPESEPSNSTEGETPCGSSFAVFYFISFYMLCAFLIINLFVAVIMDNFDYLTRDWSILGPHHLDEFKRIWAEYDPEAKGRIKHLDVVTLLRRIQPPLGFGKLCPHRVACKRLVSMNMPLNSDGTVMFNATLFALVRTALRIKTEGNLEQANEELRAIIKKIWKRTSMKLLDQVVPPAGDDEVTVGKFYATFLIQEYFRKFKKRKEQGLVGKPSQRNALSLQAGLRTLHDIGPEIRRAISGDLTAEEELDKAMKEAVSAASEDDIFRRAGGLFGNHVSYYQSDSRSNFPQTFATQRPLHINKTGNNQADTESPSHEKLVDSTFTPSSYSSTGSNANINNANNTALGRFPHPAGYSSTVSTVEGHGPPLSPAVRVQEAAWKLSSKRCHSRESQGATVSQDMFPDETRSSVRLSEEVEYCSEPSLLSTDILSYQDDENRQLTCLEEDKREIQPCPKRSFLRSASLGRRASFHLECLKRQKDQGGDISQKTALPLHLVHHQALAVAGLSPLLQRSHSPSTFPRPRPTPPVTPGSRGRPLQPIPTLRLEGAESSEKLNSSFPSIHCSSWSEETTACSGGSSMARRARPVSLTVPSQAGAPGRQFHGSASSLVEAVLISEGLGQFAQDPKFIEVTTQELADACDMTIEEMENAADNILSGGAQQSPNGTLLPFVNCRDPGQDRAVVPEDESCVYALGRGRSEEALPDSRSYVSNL

[4] = molecular target: T3, Muscarinic acetylcholine receptor M1 (Homo sapiens, UniProt P11229); type: functional
T3 sequence (P11229 whole entry): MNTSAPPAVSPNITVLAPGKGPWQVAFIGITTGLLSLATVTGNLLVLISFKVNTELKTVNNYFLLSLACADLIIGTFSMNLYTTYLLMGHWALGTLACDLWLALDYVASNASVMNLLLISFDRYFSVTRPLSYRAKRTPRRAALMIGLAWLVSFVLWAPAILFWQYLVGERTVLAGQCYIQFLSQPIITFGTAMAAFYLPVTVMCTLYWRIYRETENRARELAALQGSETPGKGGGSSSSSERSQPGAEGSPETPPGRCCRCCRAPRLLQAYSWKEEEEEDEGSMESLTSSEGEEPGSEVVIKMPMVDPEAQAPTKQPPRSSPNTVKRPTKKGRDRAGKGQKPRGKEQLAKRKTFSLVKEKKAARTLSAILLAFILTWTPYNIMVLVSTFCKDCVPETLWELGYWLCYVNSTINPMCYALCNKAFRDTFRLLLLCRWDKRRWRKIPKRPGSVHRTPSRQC

[5] = molecular target: Muscarinic acetylcholine receptor M3 (Homo sapiens, UniProt P20309)
Muscarinic acetylcholine receptor M3, sequence (P20309 whole entry): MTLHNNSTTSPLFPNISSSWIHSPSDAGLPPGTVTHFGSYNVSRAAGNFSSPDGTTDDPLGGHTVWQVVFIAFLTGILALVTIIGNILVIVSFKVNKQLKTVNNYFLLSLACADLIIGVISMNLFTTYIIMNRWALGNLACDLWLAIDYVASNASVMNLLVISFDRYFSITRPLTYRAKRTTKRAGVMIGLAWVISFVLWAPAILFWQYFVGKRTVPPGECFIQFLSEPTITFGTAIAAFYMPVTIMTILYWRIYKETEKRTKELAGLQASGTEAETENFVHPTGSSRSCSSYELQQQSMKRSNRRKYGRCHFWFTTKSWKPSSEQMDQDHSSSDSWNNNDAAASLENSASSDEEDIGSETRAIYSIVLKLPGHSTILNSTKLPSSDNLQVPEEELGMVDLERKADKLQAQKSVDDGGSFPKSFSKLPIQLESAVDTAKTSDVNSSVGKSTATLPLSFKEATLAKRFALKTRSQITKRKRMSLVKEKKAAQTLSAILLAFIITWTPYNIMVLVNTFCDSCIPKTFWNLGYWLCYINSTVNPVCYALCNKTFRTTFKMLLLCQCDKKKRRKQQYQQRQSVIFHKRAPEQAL

Cannabinoid receptor 1 = Cannabinoid receptor 1 (Homo sapiens, UniProt P21554)
Cannabinoid receptor 1, sequence (P21554 whole entry): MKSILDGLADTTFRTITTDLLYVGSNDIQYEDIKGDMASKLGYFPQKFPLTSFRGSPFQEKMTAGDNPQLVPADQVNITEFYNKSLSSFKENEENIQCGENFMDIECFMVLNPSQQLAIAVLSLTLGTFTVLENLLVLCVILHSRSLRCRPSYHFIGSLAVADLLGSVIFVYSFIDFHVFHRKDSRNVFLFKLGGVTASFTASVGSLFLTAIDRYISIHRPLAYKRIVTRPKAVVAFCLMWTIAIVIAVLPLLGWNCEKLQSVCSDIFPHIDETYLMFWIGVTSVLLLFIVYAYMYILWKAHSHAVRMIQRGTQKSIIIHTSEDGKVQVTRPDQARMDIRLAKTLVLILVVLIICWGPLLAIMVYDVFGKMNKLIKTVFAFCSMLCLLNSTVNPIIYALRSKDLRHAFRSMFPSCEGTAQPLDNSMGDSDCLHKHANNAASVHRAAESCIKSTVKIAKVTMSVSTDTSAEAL

Melanocortin receptor 4 = Melanocortin receptor 4 (Homo sapiens, UniProt P32245)
Melanocortin receptor 4, sequence (P32245 whole entry): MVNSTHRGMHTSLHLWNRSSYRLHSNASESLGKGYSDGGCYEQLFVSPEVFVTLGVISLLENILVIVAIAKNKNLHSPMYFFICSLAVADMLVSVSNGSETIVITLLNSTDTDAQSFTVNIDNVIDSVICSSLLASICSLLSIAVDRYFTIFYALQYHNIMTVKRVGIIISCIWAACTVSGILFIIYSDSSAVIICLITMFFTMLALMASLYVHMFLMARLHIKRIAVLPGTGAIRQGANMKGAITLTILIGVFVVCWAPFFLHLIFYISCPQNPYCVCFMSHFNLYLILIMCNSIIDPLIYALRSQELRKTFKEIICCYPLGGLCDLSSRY

Mu-type opioid receptor = Mu-type opioid receptor (Homo sapiens, UniProt P35372)
Mu-type opioid receptor, sequence (P35372 whole entry): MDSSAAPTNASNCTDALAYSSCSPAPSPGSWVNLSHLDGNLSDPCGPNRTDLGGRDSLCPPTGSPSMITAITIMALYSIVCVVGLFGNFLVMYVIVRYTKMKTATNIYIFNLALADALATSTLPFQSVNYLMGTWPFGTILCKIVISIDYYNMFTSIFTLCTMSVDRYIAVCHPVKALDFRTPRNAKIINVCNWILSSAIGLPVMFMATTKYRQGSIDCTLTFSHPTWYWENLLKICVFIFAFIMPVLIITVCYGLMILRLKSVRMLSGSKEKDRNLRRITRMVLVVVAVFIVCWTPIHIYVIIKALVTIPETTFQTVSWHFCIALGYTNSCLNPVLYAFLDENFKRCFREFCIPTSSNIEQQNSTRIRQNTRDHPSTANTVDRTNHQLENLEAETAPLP

[6] = molecular target: T1, Alpha-1A adrenergic receptor; type: functional, cell-based
Progesterone receptor = molecular target: T4, Progesterone receptor (Homo sapiens, UniProt P06401); type: functional
T4 sequence (P06401 whole entry): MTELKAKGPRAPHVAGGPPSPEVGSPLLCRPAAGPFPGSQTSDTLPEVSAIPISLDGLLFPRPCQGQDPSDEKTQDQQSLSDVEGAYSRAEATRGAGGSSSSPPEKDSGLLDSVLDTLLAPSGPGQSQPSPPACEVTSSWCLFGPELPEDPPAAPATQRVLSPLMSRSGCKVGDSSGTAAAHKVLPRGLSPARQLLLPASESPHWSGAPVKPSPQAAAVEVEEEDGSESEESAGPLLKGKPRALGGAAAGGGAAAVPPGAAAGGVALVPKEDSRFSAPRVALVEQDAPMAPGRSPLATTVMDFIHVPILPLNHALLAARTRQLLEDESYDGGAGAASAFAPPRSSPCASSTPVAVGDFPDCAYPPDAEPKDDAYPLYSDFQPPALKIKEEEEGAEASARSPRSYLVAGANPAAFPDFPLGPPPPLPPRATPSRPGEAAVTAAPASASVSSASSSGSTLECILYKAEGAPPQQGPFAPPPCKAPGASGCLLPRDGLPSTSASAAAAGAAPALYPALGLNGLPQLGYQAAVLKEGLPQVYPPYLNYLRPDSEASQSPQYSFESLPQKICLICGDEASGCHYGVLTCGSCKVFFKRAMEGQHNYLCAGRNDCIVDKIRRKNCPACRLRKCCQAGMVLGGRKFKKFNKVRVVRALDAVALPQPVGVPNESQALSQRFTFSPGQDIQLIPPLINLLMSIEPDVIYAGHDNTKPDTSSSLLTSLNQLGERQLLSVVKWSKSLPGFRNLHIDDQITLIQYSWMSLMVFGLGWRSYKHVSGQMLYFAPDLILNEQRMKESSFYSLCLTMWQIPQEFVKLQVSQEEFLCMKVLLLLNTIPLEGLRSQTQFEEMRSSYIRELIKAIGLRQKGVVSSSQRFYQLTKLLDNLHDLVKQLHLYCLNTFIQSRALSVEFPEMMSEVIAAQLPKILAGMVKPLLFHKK
Also: assay procedure not described here.

| Compound | AC50 [1] | AC50 [2] | AC50 (Vasopressin V1a receptor) | AC50 (B2 bradykinin receptor) | AC50 [3] | AC50 [4] | AC50 [5] | AC50 (Cannabinoid receptor 1) | AC50 (Melanocortin receptor 4) | AC50 (Mu-type opioid receptor) | AC50 [6] | AC50 (Progesterone receptor) |
| --- | --- | --- | --- | --- | --- | --- | --- | --- | --- | --- | --- | --- |
| CN1CC(=O)N2[C@H](c3ccc4c(c3)OCO4)c3[nH]c4ccccc4c3C[C@@H]2C1=O | > 10 µM | > 30 µM | > 30 µM | > 30 µM | > 10 µM | > 10 µM | > 30 µM | > 10 µM | > 30 µM | > 30 µM |  |  |
| CN1CCc2cccc3c2[C@H]1Cc1ccc(O)c(O)c1-3 [APOMORPHINE] | > 10 µM | > 30 µM | > 30 µM | > 30 µM | > 10 µM | > 30 µM | > 30 µM | > 10 µM | > 30 µM | > 30 µM |  |  |
| CC(C)c1c(C(=O)Nc2ccccc2)c(-c2ccccc2)c(-c2ccc(F)cc2)n1CC[C@@H](O)C[C@@H](O)CC(=O)O [ATORVASTATIN] | > 10 µM | > 30 µM | > 30 µM | > 30 µM | > 10 µM |  |  | > 10 µM | > 30 µM |  | > 30 µM |  |
| NC(CO)C(=O)NNCc1ccc(O)c(O)c1O (centres undefined) [BENSERAZIDE] | > 10 µM | > 30 µM | > 30 µM | > 30 µM | > 10 µM | > 10 µM | > 30 µM | > 10 µM | > 30 µM | > 10 µM | > 30 µM |  |
| CN(C)C(=O)OC1N=C(c2ccccc2)c2cc(Cl)ccc2N(C)C1=O (centres undefined) [CAMAZEPAM] | > 10 µM | > 30 µM | > 10 µM | > 30 µM | > 10 µM | > 10 µM | > 10 µM | > 10 µM | > 30 µM | > 10 µM | > 30 µM |  |
| [H]/N=C(/N)c1ccc(NCc2nc3cc(C(=O)N(CCC(=O)O)c4ccccn4)ccc3n2C)cc1 [DABIGATRAN] |  | > 30 µM | > 30 µM | > 30 µM |  | > 30 µM | > 30 µM |  |  | > 30 µM | > 30 µM | > 30 µM |
| CN[C@@H](C)[C@H](O)c1ccccc1 [EPHEDRINE] | > 10 µM | > 30 µM | > 10 µM | > 30 µM | > 10 µM | > 10 µM | > 10 µM | > 10 µM | > 30 µM | > 30 µM |  |  |
| CCN1CCC[C@H]1CNC(=O)c1cc(S(N)(=O)=O)ccc1OC [LEVOSULPIRIDE] | 16 µM | > 30 µM | > 30 µM | > 30 µM | > 10 µM |  |  | > 10 µM | > 30 µM | > 30 µM | > 30 µM |  |
| CC/C=C\C/C=C\C/C=C\CCCCCCCC(=O)O [LINOLENIC ACID] |  | > 30 µM | > 30 µM | > 30 µM |  | > 30 µM | > 30 µM |  |  | > 30 µM | > 30 µM |  |
| Cc1cc(-c2ccccc2)nnc1NCCN1CCOCC1 [MINAPRINE] | > 10 µM | > 30 µM | > 10 µM | > 30 µM | > 10 µM | > 10 µM | > 10 µM | 9.5 µM | > 30 µM | > 30 µM | > 30 µM |  |
| NC(=O)C[S+]([O-])C(c1ccccc1)c1ccccc1 (centres undefined) [MODAFINIL] | > 10 µM | > 30 µM | > 10 µM | > 30 µM | > 10 µM |  |  | > 10 µM | 24.1 µM | > 10 µM | > 30 µM |  |
| CC(Cc1ccccc1)NCCC(c1ccccc1)c1ccccc1 (centres undefined) [PRENYLAMINE] | 0.877 µM | > 30 µM | > 30 µM | > 30 µM | 4.28 µM | > 10 µM | > 10 µM | 7.95 µM | 6.4 µM | 1.8 µM | > 30 µM |  |
| CCN(CC)CCOC(=O)c1ccc(N)cc1 [PROCAINE] | > 10 µM | > 30 µM |  | > 30 µM | > 10 µM |  |  | > 10 µM | > 30 µM | > 30 µM | > 30 µM |  |
| Cc1ccc(-c2nc3ccc(C)cn3c2CC(=O)N(C)C)cc1 [ZOLPIDEM] | 6.76 µM | > 30 µM | > 30 µM | > 30 µM | > 30 µM |  | > 30 µM | > 30 µM | > 30 µM | > 10 µM | > 30 µM | > 30 µM |
